From US7417156B2, “Orally active, antimalarial, anticancer, artemisinin-derived trioxane dimers” (Johns Hopkins University, priority 2002, dated 2008)

Columns and labels:
[1] = tested on: chloroquine-sensitive P. falciparum (NF54); experiment: Antimalarial activity in vitro, [3H]hypoxanthine incorporation; assay type: cell-based; conditions: Table I; NF54 strain; read-out: IC50
CCRF-CEM = experiment: NCI 60 cell line panel screen (SRB); assay type: cell-based, human; conditions: for Log10TGI50: TGI: PG=0
HL-60(TB) = experiment: NCI 60 cell line panel screen (SRB); assay type: cell-based, human; conditions: for Log10TGI50: TGI: PG=0
MOLT-4 = conditions: for Log10TGI50: TGI: PG=0
Procedure: Growth Inhibition. […] The screening assay is performed on 96-well microtitre plates. Relatively high initial inoculation densities are used, in order to permit measurement of “time-zero” values and to enhance the screen's ability to detect and provide some differentiation between growth inhibition and cytotoxic response parameters. […] The inoculated microtitre plates are pre-incubated for 24 hours at 37° C. prior to drug additions. The five drug dilutions tested routinely range from 10^−4 to 10^−8 molar. Higher or lower concentration ranges may be selected on a non-routine basis if appropriate solubility and/or prior biological information or other screening data so dictate. Duplicate wells are prepared for all concentrations, (concentration is often denoted by placing brackets around a number); “time-zero” and “no drug” controls are also provided for each test. The minimum amount of compound required for a one-time evaluation in the routine screen can be calculated from the knowledge that each test requires a total of approximately 40 ml (0.04 liter) of cell culture medium containing the highest desired drug concentration. […] After a 48 hour incubation (37° C.) with the test compound, the cells are fixed in situ to the bottoms of the microtitre wells by addition of 50 μl of either 50% trichloroacetic acid (for adherent cell lines) or 80% trichloroacetic acid (for settled cell suspension lines), followed by incubation for 60 minutes at 4° C. The cellular protein in each well is assayed using a sulforhodamine B (SRB) stain procedure. Briefly, after discarding the supernatants, the microtitre plates are washed 5 times with deionized water and air-dried. […] Unbound SRB is removed by washing 5 times with 1% acetic acid. […] SRB is a bright pink anionic dye which, in dilute acetic acid, binds electrostatically to the basic amino acids of TCA-fixed cells. Cryopreserved master stocks of all the lines are maintained, and cultures used for screening are replaced from the master stock after no more than twenty passages in the screening laboratory. The cell line panel consists of 60 lines, organized into nine, disease-related subpanels including leukemia, non-small-cell lung cancer, colon, CNS, melanoma, ovarian, renal, prostate and breast cancers.
At this value the increase from time tzero, in the number or mass of cells in the test well is only 50% as much as the corresponding increase in the control well during this period of the experiment, see Table III. A drug effect of this intensity is interpreted as primary growth inhibition.
At this value the number or mass of cells in the well at the end of the experiment equals the number or mass of cells in the well at time tzero, see Table IV. A drug effect of this intensity is regarded as cytostasis.
At this value, the number or mass of cells in the test well at the end of the experiment is half that at time tzero, see Table V. This is interpreted as cytotoxicity.
Dose response curves, shown in the above mentioned Figures, are obtained by exposing various cancer cell lines to compounds having a known concentration ([log10M]), as discussed in detail above, and then plotting the percentage growth of each cell line for each concentration. […] Percentage growth is determined by dividing the number or mass of cells in the test well by the number or mass of cells in a control well. […] As discussed previously, the five drug dilutions routinely tested range from 10^−4 to […].

EKVX = experiment: NCI 60 cell line panel screen (SRB); assay type: cell-based, human; conditions: for Log10TGI50: TGI: PG=0; for Log10GI50: Non-Small Cell Lung Cancer, EKVX
NCI-H460 = experiment: NCI 60 cell line panel screen (SRB); assay type: cell-based, human; conditions: for Log10TGI50: TGI: PG=0
NCI-H522 = experiment: NCI 60 cell line panel screen (SRB); assay type: cell-based, human; conditions: for Log10TGI50: NCI-H522 (Non-Small Cell Lung Cancer), TGI: PG=0; for Log10GI50: Non-Small Cell Lung Cancer, NCI-H522
COLO 205 = experiment: NCI 60 cell line panel screen (SRB); assay type: cell-based, human; conditions: for Log10TGI50: TGI: PG=0
HCT-15 = experiment: NCI 60 cell line panel screen (SRB); assay type: cell-based, human; conditions: for Log10TGI50: TGI: PG=0
SNB-19 = experiment: NCI 60 cell line panel screen (SRB); assay type: cell-based, human
SK-MEL-2 = experiment: NCI 60 cell line panel screen (SRB); assay type: cell-based, human; conditions: for Log10TGI50: SK-MEL-2 (Melanoma), TGI: PG=0
UACC-257 = experiment: NCI 60 cell line panel screen (SRB); assay type: cell-based, human; conditions: for Log10TGI50: TGI: PG=0
OVCAR-5 = experiment: NCI 60 cell line panel screen (SRB); assay type: cell-based, human; conditions: for Log10TGI50: TGI: PG=0
786-0 = experiment: NCI 60 cell line panel screen (SRB); assay type: cell-based, human; conditions: for Log10TGI50: TGI: PG=0; for Log10GI50: Renal Cancer, 786-0
CAKI-1 = experiment: NCI 60 cell line panel screen (SRB); assay type: cell-based, human; conditions: for Log10TGI50: TGI: PG=0; for Log10GI50: Renal Cancer, CAKI-1
MCF7 = experiment: NCI 60 cell line panel screen (SRB); assay type: cell-based, human; conditions: for Log10GI50: Breast Cancer, MCF7; for Log10TGI50: TGI: PG=0
HS 578T = experiment: NCI 60 cell line panel screen (SRB); assay type: cell-based, human; conditions: for Log10GI50: Breast Cancer, HS 578T; for Log10TGI50: TGI: PG=0
[2] = EKVX (Non-Small Cell Lung Cancer)
[3] = NCI-H460 (Non-Small Cell Lung Cancer)

## CC1CCC2C(C)C(CC(O)(CC3OC4OC5(C)CCC6C(C)CCC(C3C)C46OO5)CS(=O)(=O)c3ccc(C(=O)O)cc3)OC3OC4(C)CCC1C32OO4 (stereo not drawn) [Compound 10c, bis-trioxane β-hydroxysulfone benzoic acid]
[1]
  IC50: 2.4 nM
CCRF-CEM; CCRF-CEM (Leukemia), LC50: PG=−50
  Log10LC50: >−4.30 log10M
CCRF-CEM; CCRF-CEM (Leukemia)
  Log10TGI50: −4.84 log10M
CCRF-CEM; Leukemia, CCRF-CEM
  Log10GI50: <−8.30
HL-60(TB); HL-60(TB) (Leukemia), LC50: PG=−50
  Log10LC50: >−4.30 log10M
HL-60(TB); HL-60(TB) (Leukemia)
  Log10TGI50: <−8.30 log10M
HL-60(TB); Leukemia, HL-60(TB)
  Log10GI50: <−8.30
MOLT-4; MOLT-4 (Leukemia), LC50: PG=−50
  Log10LC50: >−4.30 log10M
MOLT-4; MOLT-4 (Leukemia)
  Log10TGI50: >−4.30 log10M
EKVX; EKVX (Non-Small Cell Lung Cancer), LC50: PG=−50
  Log10LC50: >−4.30 log10M
EKVX; [2]
  Log10TGI50: −4.63 log10M
EKVX
  Log10GI50: −4.99
NCI-H460; NCI-H460 (Non-Small Cell Lung Cancer), LC50: PG=−50
  Log10LC50: −4.62 log10M
NCI-H460; [3]
  Log10TGI50: −5.11 log10M
NCI-H460; Non-Small Cell Lung Cancer, NCI-H460
  Log10GI50: <−8.30
NCI-H522
  Log10TGI50: −4.34 log10M
  Log10GI50: <−8.30
NCI-H522; NCI-H-522 (Non-Small Cell Lung Cancer), LC50: PG=−50
  Log10LC50: >−4.30 log10M
COLO 205; COLO 205 (Colon Cancer), LC50: PG=−50
  Log10LC50: −5.55 log10M
COLO 205; COLO 205 (Colon Cancer)
  Log10TGI50: <−8.30 log10M
COLO 205; Colon Cancer, COLO 205
  Log10GI50: <−8.30
HCT-15; Colon Cancer, HCT-15
  Log10GI50: <−8.30
HCT-15; HCT-15 (Colon Cancer), LC50: PG=−50
  Log10LC50: −4.70 log10M
HCT-15; HCT-15 (Colon Cancer)
  Log10TGI50: −5.23 log10M
SNB-19; CNS Cancer, SNB-19
  Log10GI50: −6.72
SNB-19; SNB-19 (CNS Cancer), LC50: PG=−50
  Log10LC50: −4.44 log10M
SNB-19; SNB-19 (CNS Cancer), TGI: PG=0
  Log10TGI50: −4.96 log10M
SK-MEL-2; SK-MEL2 (Melanoma), LC50: PG=−50
  Log10LC50: >−4.30 log10M
SK-MEL-2
  Log10TGI50: >−4.30 log10M
UACC-257; UACC-257 (Melanoma), LC50: PG=−50
  Log10LC50: >−4.30 log10M
UACC-257; UACC-257 (Melanoma)
  Log10TGI50: −4.38 log10M
OVCAR-5; OVCAR-5 (Ovarian Cancer), LC50: PG=−50
  Log10LC50: −4.88 log10M
OVCAR-5; OVCAR-5 (Ovarian Cancer)
  Log10TGI50: <−8.30 log10M
OVCAR-5; Ovarian Cancer, OVCAR-5
  Log10GI50: <−8.30
786-0; 786-0 (Renal Cancer), LC50: PG=−50
  Log10LC50: −4.64 log10M
786-0; 786-0 (Renal Cancer)
  Log10TGI50: −5.08 log10M
786-0
  Log10GI50: <−8.30
CAKI-1; CAKI-1 (Renal Cancer), LC50: PG=−50
  Log10LC50: −4.93 log10M
CAKI-1; CAKI-1 (Renal Cancer)
  Log10TGI50: −6.71 log10M
CAKI-1
  Log10GI50: <−8.30
MCF7
  Log10GI50: <−8.30
MCF7; MCF7 (Breast Cancer), LC50: PG=−50
  Log10LC50: >−4.30 log10M
MCF7; MCF7 (Breast Cancer)
  Log10TGI50: −5.13 log10M
HS 578T
  Log10GI50: −4.82
HS 578T; HS 578T (Breast Cancer), LC50: PG=−50
  Log10LC50: >−4.30 log10M
HS 578T; HS 578T (Breast Cancer)
  Log10TGI50: −4.53 log10M

## CC1CCC2C(C)C(CC(COCC(=O)O)CC3OC4OC5(C)CCC6C(C)CCC(C3C)C46OO5)OC3OC4(C)CCC1C32OO4 (centres unmarked) [Compound 12b, bis-trioxane O-acetic acid]
[1]
  IC50: 3.2 nM
CCRF-CEM; CCRF-CEM (Leukemia)
  Log10TGI50: >−4.30 log10M
HL-60(TB); HL-60(TB) (Leukemia)
  Log10TGI50: <−8.30 log10M
MOLT-4; Leukemia, MOLT-4
  Log10GI50: −7.66
MOLT-4; MOLT-4 (Leukemia)
  Log10TGI50: >−4.30 log10M
EKVX; [2]
  Log10TGI50: >−4.30 log10M
EKVX
  Log10GI50: >−4.30
NCI-H460; [3]
  Log10TGI50: >−4.30 log10M
NCI-H522
  Log10TGI50: >−4.30 log10M
  Log10GI50: >−4.30
COLO 205; COLO 205 (Colon Cancer)
  Log10TGI50: −5.28 log10M
HCT-15; HCT-15 (Colon Cancer)
  Log10TGI50: −5.00 log10M
SK-MEL-2; Melanoma, SK-MEL-2
  Log10GI50: −5.62
SK-MEL-2
  Log10TGI50: >−4.30 log10M
UACC-257; Melanoma, UACC-257
  Log10GI50: >−4.30
UACC-257; UACC-257 (Melanoma)
  Log10TGI50: >4.30 log10M
OVCAR-5; OVCAR-5 (Ovarian Cancer)
  Log10TGI50: −6.39 log10M
786-0; 786-0 (Renal Cancer)
  Log10TGI50: >−4.30 log10M
786-0
  Log10GI50: −6.59
CAKI-1; CAKI-1 (Renal Cancer)
  Log10TGI50: −6.40 log10M
CAKI-1
  Log10GI50: −6.91
MCF7
  Log10GI50: −7.37
MCF7; MCF7 (Breast Cancer)
  Log10TGI50: >−4.30 log10M
HS 578T
  Log10GI50: >−4.30
HS 578T; HS 578T (Breast Cancer)
  Log10TGI50: >−4.30 log10M
